# From publication PMC9481151, “Discovery of new symmetrical and asymmetrical nitrile-containing 1,4-dihydropyridine derivatives as dual kinases and P-glycoprotein inhibitors: synthesis, in vitro assays, and in silico studies” (Journal of Enzyme Inhibition and Medicinal Chemistry, 2022)
# Tests used:
# CCRF-CEM = assay: NCI single dose (10 µM) SRB screen; assay type: cell-based, human; conditions: leukaemia, 48 h
# HL-60(TB) = assay: NCI single dose (10 µM) SRB screen; assay type: cell-based, human; conditions: leukaemia, 48 h
# K-562 = assay: NCI single dose (10 µM) SRB screen; assay type: cell-based, human; conditions: leukaemia, 48 h
# MOLT-4 = assay: NCI single dose (10 µM) SRB screen; assay type: cell-based, human; conditions: leukaemia, 48 h
# RPMI-8226 = assay: NCI single dose (10 µM) SRB screen; assay type: cell-based, human; conditions: leukaemia, 48 h
# SR = assay: NCI single dose (10 µM) SRB screen; assay type: cell-based, human; conditions: leukaemia, 48 h
# A549/ATCC = assay: NCI single dose (10 µM) SRB screen; assay type: cell-based, human; conditions: non-small cell lung cancer, 48 h
# EKVX = assay: NCI single dose (10 µM) SRB screen; assay type: cell-based, human; conditions: non-small cell lung cancer, 48 h
# HOP-62 = assay: NCI single dose (10 µM) SRB screen; assay type: cell-based, human; conditions: non-small cell lung cancer, 48 h
# HOP-92 = assay: NCI single dose (10 µM) SRB screen; assay type: cell-based, human; conditions: non-small cell lung cancer, 48 h
# NCI-H23 = assay: NCI single dose (10 µM) SRB screen; assay type: cell-based, human; conditions: non-small cell lung cancer, 48 h
# NCI-H322M = assay: NCI single dose (10 µM) SRB screen; assay type: cell-based; conditions: non-small cell lung cancer, 48 h
# NCI-H460 = assay: NCI single dose (10 µM) SRB screen; assay type: cell-based, human; conditions: non-small cell lung cancer, 48 h
# NCI-H522 = assay: NCI single dose (10 µM) SRB screen; assay type: cell-based, human; conditions: non-small cell lung cancer, 48 h
# COLO 205 = assay: NCI single dose (10 µM) SRB screen; assay type: cell-based, human; conditions: colon cancer, 48 h
# HCC-2998 = assay: NCI single dose (10 µM) SRB screen; assay type: cell-based, human; conditions: colon cancer, 48 h
# HCT-116 = assay: NCI single dose (10 µM) SRB screen; assay type: cell-based, human; conditions: colon cancer, 48 h
# HCT-15 = assay: NCI single dose (10 µM) SRB screen; assay type: cell-based, human; conditions: colon cancer, 48 h
# HT29 = assay: NCI single dose (10 µM) SRB screen; assay type: cell-based, human; conditions: colon cancer, 48 h
# KM12 = assay: NCI single dose (10 µM) SRB screen; assay type: cell-based, human; conditions: colon cancer, 48 h
# SF-268 = assay: NCI single dose (10 µM) SRB screen; assay type: cell-based, human; conditions: CNS cancer, 48 h
# SF-295 = assay: NCI single dose (10 µM) SRB screen; assay type: cell-based, human; conditions: CNS cancer, 48 h
# SF-539 = assay: NCI single dose (10 µM) SRB screen; assay type: cell-based, human; conditions: CNS cancer, 48 h
# SNB-19 = assay: NCI single dose (10 µM) SRB screen; assay type: cell-based, human; conditions: CNS cancer, 48 h
# SNB-75 = assay: NCI single dose (10 µM) SRB screen; assay type: cell-based, human; conditions: CNS cancer, 48 h
# U251 = assay: NCI single dose (10 µM) SRB screen; assay type: cell-based, human; conditions: CNS cancer, 48 h
# MALME-3M = assay: NCI single dose (10 µM) SRB screen; assay type: cell-based, human; conditions: melanoma, 48 h
# M14 = assay: NCI single dose (10 µM) SRB screen; assay type: cell-based, human; conditions: melanoma, 48 h
# MDA-MB-435 = assay: NCI single dose (10 µM) SRB screen; assay type: cell-based, human; conditions: melanoma, 48 h
# SK-MEL-2 = assay: NCI single dose (10 µM) SRB screen; assay type: cell-based, human; conditions: melanoma, 48 h
# SK-MEL-28 = assay: NCI single dose (10 µM) SRB screen; assay type: cell-based, human; conditions: melanoma, 48 h
# UACC-257 = assay: NCI single dose (10 µM) SRB screen; assay type: cell-based, human; conditions: melanoma, 48 h
# UACC-62 = assay: NCI single dose (10 µM) SRB screen; assay type: cell-based, human; conditions: melanoma, 48 h
# IGROV1 = assay: NCI single dose (10 µM) SRB screen; assay type: cell-based, human; conditions: ovarian cancer, 48 h
# OVCAR-5 = assay: NCI single dose (10 µM) SRB screen; assay type: cell-based, human; conditions: ovarian cancer, 48 h
# NCI/ADR-RES = assay: NCI single dose (10 µM) SRB screen; assay type: cell-based, human; conditions: ovarian cancer, 48 h
# SK-OV-3 = assay: NCI single dose (10 µM) SRB screen; assay type: cell-based, human; conditions: ovarian cancer, 48 h
# 786-0 = assay: NCI single dose (10 µM) SRB screen; assay type: cell-based, human; conditions: renal cancer, 48 h
# A498 = assay: NCI single dose (10 µM) SRB screen; assay type: cell-based, human; conditions: renal cancer, 48 h
# ACHN = assay: NCI single dose (10 µM) SRB screen; assay type: cell-based, human; conditions: renal cancer, 48 h
# CAKI-1 = assay: NCI single dose (10 µM) SRB screen; assay type: cell-based, human; conditions: renal cancer, 48 h
# SN12C = assay: NCI single dose (10 µM) SRB screen; assay type: cell-based, human; conditions: renal cancer, 48 h
# TK-10 = assay: NCI single dose (10 µM) SRB screen; assay type: cell-based, human; conditions: renal cancer, 48 h
# UO-31 = assay: NCI single dose (10 µM) SRB screen; assay type: cell-based, human; conditions: renal cancer, 48 h
# PC-3 = assay: NCI single dose (10 µM) SRB screen; assay type: cell-based, human; conditions: prostate cancer, 48 h
# DU-145 = assay: NCI single dose (10 µM) SRB screen; assay type: cell-based, human; conditions: prostate cancer, 48 h
# MDA-MB-231 = assay: NCI single dose (10 µM) SRB screen; assay type: cell-based, human; conditions: breast cancer, 48 h
# T-47D = assay: NCI single dose (10 µM) SRB screen; assay type: cell-based, human; conditions: breast cancer, 48 h
# MDA-MB-468 = assay: NCI single dose (10 µM) SRB screen; assay type: cell-based, human; conditions: breast cancer, 48 h
# Staphylococcus aureus = assay: Agar well diffusion method
# Bacillus subtilis = assay: Agar well diffusion method; conditions: relative to ciprofloxacin
# Escherichia coli = assay: Agar well diffusion method
# Pseudomonas aeruginosa = assay: Agar well diffusion method
compound,measurement,setting,value
"COC(=O)C1=C(C)NC(C)=C(C(=O)OCC(C)C)C1c1cccc(C#N)c1 (racemic) [Compound 2b, (±)-3-Isobutyl 5-methyl 4-(3-cyanophenyl)-2,6-dimethyl-1,4-dihydropyridine-3,5-dicarboxylate]",GI% CCRF-CEM,CCRF-CEM,– (Only GI% ≥ 10 are shown)
same,GI% HL-60(TB),HL-60(TB),18%
same,GI% K-562,K-562,15%
same,GI% MOLT-4,MOLT-4,16%
same,GI% RPMI-8226,RPMI-8226,– (Only GI% ≥ 10 are shown)
same,GI% SR,SR,29%
same,GI% A549/ATCC,A549/ATCC,– (Only GI% ≥ 10 are shown)
same,GI% EKVX,EKVX,12%
same,GI% HOP-62,HOP-62,– (Only GI% ≥ 10 are shown)
same,GI% HOP-92,HOP-92,17%
same,GI% NCI-H23,NCI-H23,– (Only GI% ≥ 10 are shown)
same,GI% NCI-H322M,NCI-H322M,– (Only GI% ≥ 10 are shown)
same,GI% NCI-H460,NCI-H460,– (Only GI% ≥ 10 are shown)
same,GI% NCI-H522,NCI-H522,15%
same,GI% COLO 205,COLO 205,– (Only GI% ≥ 10 are shown)
same,GI% HCC-2998,HCC-2998,– (Only GI% ≥ 10 are shown)
same,GI% HCT-116,HCT-116,18%
same,GI% HCT-15,HCT-15,– (Only GI% ≥ 10 are shown)
same,GI% HT29,HT29,– (Only GI% ≥ 10 are shown)
same,GI% KM12,KM12,– (Only GI% ≥ 10 are shown)
same,GI% SF-268,SF-268,– (Only GI% ≥ 10 are shown)
same,GI% SF-295,SF-295,18%
same,GI% SF-539,SF-539,– (Only GI% ≥ 10 are shown)
same,GI% SNB-19,SNB-19,– (Only GI% ≥ 10 are shown)
same,GI% SNB-75,SNB-75,22%
same,GI% U251,U251,– (Only GI% ≥ 10 are shown)
same,GI% MALME-3M,MALME-3M,– (Only GI% ≥ 10 are shown)
same,GI% M14,M14,– (Only GI% ≥ 10 are shown)
same,GI% MDA-MB-435,MDA-MB-435,– (Only GI% ≥ 10 are shown)
same,GI% SK-MEL-2,SK-MEL-2,– (Only GI% ≥ 10 are shown)
same,GI% SK-MEL-28,SK-MEL-28,– (Only GI% ≥ 10 are shown)
same,GI% UACC-257,UACC-257,– (Only GI% ≥ 10 are shown)
same,GI% UACC-62,UACC-62,21%
same,GI% IGROV1,IGROV1,12%
same,GI% OVCAR-5,OVCAR-5,– (Only GI% ≥ 10 are shown)
same,GI% NCI/ADR-RES,NCI/ADR-RES,– (Only GI% ≥ 10 are shown)
same,GI% SK-OV-3,SK-OV-3,– (Only GI% ≥ 10 are shown)
same,GI% 786-0,786-0,– (Only GI% ≥ 10 are shown)
same,GI% A498,A498,– (Only GI% ≥ 10 are shown)
same,GI% ACHN,ACHN,– (Only GI% ≥ 10 are shown)
same,GI% CAKI-1,CAKI-1,28%
same,GI% SN12C,SN12C,– (Only GI% ≥ 10 are shown)
same,GI% TK-10,TK-10,– (Only GI% ≥ 10 are shown)
same,GI% UO-31,UO-31,11%
same,GI% PC-3,PC-3,22%
same,GI% DU-145,DU-145,– (Only GI% ≥ 10 are shown)
same,GI% MDA-MB-231,MDA-MB-231,– (Only GI% ≥ 10 are shown)
same,GI% T-47D,T-47D,25%
same,GI% MDA-MB-468,MDA-MB-468,– (Only GI% ≥ 10 are shown)
same,zone of inhibition at 1000 µg/mL,"Staphylococcus aureus; Staphylococcus aureus, 24 h, read-out: Diameter of inhibition zone, S. aureus",9 mm
same,"% activity index, S. aureus",Staphylococcus aureus; relative to ciprofloxacin,37.5%
same,"% activity index, B. subtilis",Bacillus subtilis,– (Values below 25 are of limited value and not shown as they refer either to inactive or non-diffusing compounds)
same,zone of inhibition at 1000 µg/mL,"Escherichia coli; Escherichia coli, 24 h, read-out: Diameter of inhibition zone, E. coli",9 mm
same,"% activity index, E. coli",Escherichia coli; relative to ciprofloxacin,34.6%
same,zone of inhibition at 1000 µg/mL,"Pseudomonas aeruginosa; Pseudomonas aeruginosa, 24 h, read-out: Diameter of inhibition zone, P. aeruginosa",13 mm
same,"% activity index, P. aeruginosa",Pseudomonas aeruginosa; relative to ciprofloxacin,56.5%
